Measured values published in the supplement of paper PMC10627819.

Legend:
S. aureus Newman [1] = assay: Bliss interaction score (quartile over a dose matrix) (fitness difference); higher = more antagonism (negative = synergy)
How it was run: (§1)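 The Bliss score takes observed fitness and subtracts the expected fitness, calculated as a product of single-drug fitness values. Those single-drug values were inferred from the combination data. Fitness is OD595 at entry into stationary phase divided by the plate's robust no-drug mean, capped at 1, and the score is summarised by quartiles across technical, biological and donor/recipient replicates.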

S. aureus DSM 20231 [2] = assay: as above
How it was run: as §1

B. subtilis 168 [3] = assay: as above
How it was run: as §1

S. pneumoniae D39V [4] = assay: as above
How it was run: as §1

S. aureus Newman [5] = assay: fitness (endpoint OD595 vs no drug) (fraction); higher = more growth
How it was run: (§2)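 Each well of a 384-well plate received 30 µl of culture at OD595 0.01, or 55 µl for S. pneumoniae. TSB, LB Lennox or CY served as media at 37 °C. OD595 was taken every 30 min for 14 h and corrected by subtracting the first reading. Fitness is the optical density at stationary-phase entry divided by the robust mean of no-drug controls, capped at 1.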

S. aureus DSM 20231 [6] = assay: as above
How it was run: as §2

B. subtilis 168 [7] = assay: as above
How it was run: as §2

S. pneumoniae D39V [8] = assay: as above
How it was run: as §2
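For Bliss interaction score (quartile over a dose matrix) in this document: first quartile when negative (synergy) and third quartile when positive (antagonism).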

CCC[C@@H]1C[C@@H](C(=O)N[C@@H]([C@H]2O[C@H](SC)[C@H](O)[C@@H](O)[C@H]2O)[C@H](C)Cl)N(C)C1 [Clindamycin] + CC1=C\[C@@H](O)CC(=O)Cc2nc(co2)C(=O)N2CCC=C2C(=O)O[C@H](C(C)C)[C@H](C)/C=C/C(=O)NC\C=C\1 [Virginiamycin M1]
Settings	Bliss interaction score
B. subtilis 168 [3]	-0.0417
S. aureus DSM 20231 [2]	-0.0802
S. aureus Newman [1]	-0.0298
S. pneumoniae D39V [4]	-0.0639

Settings	fitness
B. subtilis 168 [7], first compound 0.0625 µg/mL, partner 0.0625 µg/mL	0.595
B. subtilis 168 [7], first compound 0.0625 µg/mL, partner 0.125 µg/mL	0.564
B. subtilis 168 [7], first compound 0.0625 µg/mL, partner 0.25 µg/mL	0.59
B. subtilis 168 [7], first compound 0.125 µg/mL, partner 0.0625 µg/mL	0.397
B. subtilis 168 [7], first compound 0.125 µg/mL, partner 0.125 µg/mL	0.364
B. subtilis 168 [7], first compound 0.125 µg/mL, partner 0.25 µg/mL	0.38
B. subtilis 168 [7], first compound 0.25 µg/mL, partner 0.0625 µg/mL	0.361
B. subtilis 168 [7], first compound 0.25 µg/mL, partner 0.125 µg/mL	0.357
B. subtilis 168 [7], first compound 0.25 µg/mL, partner 0.25 µg/mL	0.366
S. aureus DSM 20231 [6], first compound 0.0625 µg/mL, partner 0.0625 µg/mL	0.0867
S. aureus DSM 20231 [6], first compound 0.0625 µg/mL, partner 0.125 µg/mL	0.0913
S. aureus DSM 20231 [6], first compound 0.0625 µg/mL, partner 0.25 µg/mL	0.131
S. aureus DSM 20231 [6], first compound 0.125 µg/mL, partner 0.0625 µg/mL	0.0395
S. aureus DSM 20231 [6], first compound 0.125 µg/mL, partner 0.125 µg/mL	0.0407
S. aureus DSM 20231 [6], first compound 0.125 µg/mL, partner 0.25 µg/mL	0.0815
S. aureus Newman [5], first compound 0.0312 µg/mL, partner 0.0625 µg/mL	0.601
S. aureus Newman [5], first compound 0.0312 µg/mL, partner 0.125 µg/mL	0.613
S. aureus Newman [5], first compound 0.0312 µg/mL, partner 0.25 µg/mL	0.622
S. aureus Newman [5], first compound 0.0625 µg/mL, partner 0.0625 µg/mL	0.303
S. aureus Newman [5], first compound 0.0625 µg/mL, partner 0.125 µg/mL	0.321
S. aureus Newman [5], first compound 0.0625 µg/mL, partner 0.25 µg/mL	0.296
S. aureus Newman [5], first compound 0.125 µg/mL, partner 0.0625 µg/mL	0.0641
S. aureus Newman [5], first compound 0.125 µg/mL, partner 0.125 µg/mL	0.0861
S. aureus Newman [5], first compound 0.125 µg/mL, partner 0.25 µg/mL	0.0756
S. pneumoniae D39V [8], first compound 0.0125 µg/mL, partner 0.5 µg/mL	0.735
S. pneumoniae D39V [8], first compound 0.0125 µg/mL, partner 1 µg/mL	0.726
S. pneumoniae D39V [8], first compound 0.0125 µg/mL, partner 2 µg/mL	0.669
S. pneumoniae D39V [8], first compound 0.015 µg/mL, partner 2 µg/mL	0.806
S. pneumoniae D39V [8], first compound 0.025 µg/mL, partner 0.5 µg/mL	0.496
S. pneumoniae D39V [8], first compound 0.025 µg/mL, partner 1 µg/mL	0.471
S. pneumoniae D39V [8], first compound 0.025 µg/mL, partner 2 µg/mL	0.428
S. pneumoniae D39V [8], first compound 0.03 µg/mL, partner 2 µg/mL	0.699
S. pneumoniae D39V [8], first compound 0.05 µg/mL, partner 0.5 µg/mL	0.243
S. pneumoniae D39V [8], first compound 0.05 µg/mL, partner 1 µg/mL	0.217
S. pneumoniae D39V [8], first compound 0.05 µg/mL, partner 2 µg/mL	0.15
S. pneumoniae D39V [8], first compound 0.06 µg/mL, partner 2 µg/mL	0.624

one replicate
Settings	fitness
B. subtilis 168 [7], first compound 0.0039 µg/mL, partner 0.0625 µg/mL	0.963
B. subtilis 168 [7], first compound 0.0039 µg/mL, partner 0.125 µg/mL	0.94
B. subtilis 168 [7], first compound 0.0039 µg/mL, partner 0.25 µg/mL	0.971
B. subtilis 168 [7], first compound 0.0078 µg/mL, partner 0.0625 µg/mL	0.459
B. subtilis 168 [7], first compound 0.0078 µg/mL, partner 0.125 µg/mL	0.881
B. subtilis 168 [7], first compound 0.0078 µg/mL, partner 0.25 µg/mL	0.862
B. subtilis 168 [7], first compound 0.0156 µg/mL, partner 0.0625 µg/mL	0.845
B. subtilis 168 [7], first compound 0.0156 µg/mL, partner 0.125 µg/mL	0.923
B. subtilis 168 [7], first compound 0.0156 µg/mL, partner 0.25 µg/mL	0.927
S. aureus DSM 20231 [6], first compound 0.0312 µg/mL, partner 0.5 µg/mL	0.661
S. aureus DSM 20231 [6], first compound 0.0312 µg/mL, partner 1 µg/mL	0.597
S. aureus DSM 20231 [6], first compound 0.0625 µg/mL, partner 0.5 µg/mL	0.316
S. aureus DSM 20231 [6], first compound 0.0625 µg/mL, partner 1 µg/mL	0.275
S. aureus DSM 20231 [6], first compound 0.125 µg/mL, partner 0.5 µg/mL	0.067
S. aureus DSM 20231 [6], first compound 0.125 µg/mL, partner 1 µg/mL	0.121
S. aureus Newman [5], first compound 0.0312 µg/mL, partner 0.5 µg/mL	0.865
S. aureus Newman [5], first compound 0.0312 µg/mL, partner 1 µg/mL	0.892
S. aureus Newman [5], first compound 0.0312 µg/mL, partner 2 µg/mL	0.769
S. aureus Newman [5], first compound 0.0625 µg/mL, partner 0.5 µg/mL	0.702
S. aureus Newman [5], first compound 0.0625 µg/mL, partner 1 µg/mL	0.728
S. aureus Newman [5], first compound 0.0625 µg/mL, partner 2 µg/mL	0.595
S. aureus Newman [5], first compound 0.125 µg/mL, partner 0.5 µg/mL	0.491
S. aureus Newman [5], first compound 0.125 µg/mL, partner 1 µg/mL	0.475
S. aureus Newman [5], first compound 0.125 µg/mL, partner 2 µg/mL	0.276
S. pneumoniae D39V [8], first compound 0.015 µg/mL, partner 0.15 µg/mL	0.978
S. pneumoniae D39V [8], first compound 0.015 µg/mL, partner 0.3 µg/mL	0.911
S. pneumoniae D39V [8], first compound 0.015 µg/mL, partner 0.5 µg/mL	0.877
S. pneumoniae D39V [8], first compound 0.015 µg/mL, partner 1 µg/mL	0.838
S. pneumoniae D39V [8], first compound 0.03 µg/mL, partner 0.15 µg/mL	0.838
S. pneumoniae D39V [8], first compound 0.03 µg/mL, partner 0.3 µg/mL	0.82
S. pneumoniae D39V [8], first compound 0.03 µg/mL, partner 0.5 µg/mL	0.79
S. pneumoniae D39V [8], first compound 0.03 µg/mL, partner 1 µg/mL	0.652
S. pneumoniae D39V [8], first compound 0.06 µg/mL, partner 0.15 µg/mL	0.736
S. pneumoniae D39V [8], first compound 0.06 µg/mL, partner 0.3 µg/mL	0.695
S. pneumoniae D39V [8], first compound 0.06 µg/mL, partner 0.5 µg/mL	0.703
S. pneumoniae D39V [8], first compound 0.06 µg/mL, partner 1 µg/mL	0.574

CCC[C@@H]1C[C@@H](C(=O)N[C@@H]([C@H]2O[C@H](SC)[C@H](O)[C@@H](O)[C@H]2O)[C@H](C)Cl)N(C)C1 [Clindamycin] + CCN(CC)CCOC(=O)c1ccc(N)cc1 [Procaine]
Settings	Bliss interaction score
B. subtilis 168 [3]	-0.067
S. aureus DSM 20231 [2]	-0.0363
S. aureus Newman [1]	0.0552
S. pneumoniae D39V [4]	-0.11

fitness
Settings	partner 85.5 µg/mL	partner 171 µg/mL	partner 342 µg/mL
B. subtilis 168 [7], first compound 0.0625 µg/mL	0.504	0.483	0.506
B. subtilis 168 [7], first compound 0.125 µg/mL	0.363	0.362	0.367
B. subtilis 168 [7], first compound 0.25 µg/mL	0.344	0.335	0.339
S. aureus DSM 20231 [6], first compound 0.0625 µg/mL	0.196	–	–
S. aureus DSM 20231 [6], first compound 0.125 µg/mL	0.0583	0.0591	0.0589
S. aureus Newman [5], first compound 0.0312 µg/mL	0.706	–	–
S. pneumoniae D39V [8], first compound 0.0125 µg/mL	0.772	0.723	0.746
S. pneumoniae D39V [8], first compound 0.025 µg/mL	0.517	0.472	0.466
S. pneumoniae D39V [8], first compound 0.05 µg/mL	0.205	0.186	0.19

fitness, one replicate
Settings	first compound 0.0039 µg/mL	first compound 0.0078 µg/mL	first compound 0.015 µg/mL	first compound 0.0156 µg/mL	first compound 0.03 µg/mL	first compound 0.06 µg/mL
B. subtilis 168 [7], partner 85.5 µg/mL	0.941	0.866	–	0.798	–	–
B. subtilis 168 [7], partner 171 µg/mL	0.931	0.838	–	0.814	–	–
B. subtilis 168 [7], partner 342 µg/mL	0.931	0.788	–	0.856	–	–
S. pneumoniae D39V [8], partner 85.5 µg/mL	–	–	0.916	–	0.713	0.349
S. pneumoniae D39V [8], partner 171 µg/mL	–	–	0.956	–	0.766	0.513
S. pneumoniae D39V [8], partner 342 µg/mL	–	–	0.806	–	0.716	0.373
